Read-outs that look alike come from different tables or passages of the source.
Key:
Format in all cases: biochemical
MMP-3 = target: T1, MMP-3 (Homo sapiens, UniProt P08254); assay: Automated MMP Profiling Assay, MMP-3 fluorogenic; settings: for IC50: 96-well automated, P218
T1 construct: Truncated Prostromelysin-257 was expressed in a soluble form in E.coli; made in house; host or cells: E. coli
Source text: This assay with each invention compound was run with the three enzymes MMP-3, MMP-9 and MMP-2 in parallel as adapted for a 96-well microtitre plate using a Hamilton A® workstation.

MMP-9 = target: T2, MMP-9 (Homo sapiens, UniProt P14780); assay: Automated MMP Profiling Assay, MMP-9 fluorogenic; settings: for IC50: 96-well automated, P218
T2 construct: from tissue; host or cells: human polymorphonuclear leukocytes (PMN) from whole blood (New York Blood Center), PMA-stimulated supernatant
T2 sequence (P14780 107-707 limits assumed): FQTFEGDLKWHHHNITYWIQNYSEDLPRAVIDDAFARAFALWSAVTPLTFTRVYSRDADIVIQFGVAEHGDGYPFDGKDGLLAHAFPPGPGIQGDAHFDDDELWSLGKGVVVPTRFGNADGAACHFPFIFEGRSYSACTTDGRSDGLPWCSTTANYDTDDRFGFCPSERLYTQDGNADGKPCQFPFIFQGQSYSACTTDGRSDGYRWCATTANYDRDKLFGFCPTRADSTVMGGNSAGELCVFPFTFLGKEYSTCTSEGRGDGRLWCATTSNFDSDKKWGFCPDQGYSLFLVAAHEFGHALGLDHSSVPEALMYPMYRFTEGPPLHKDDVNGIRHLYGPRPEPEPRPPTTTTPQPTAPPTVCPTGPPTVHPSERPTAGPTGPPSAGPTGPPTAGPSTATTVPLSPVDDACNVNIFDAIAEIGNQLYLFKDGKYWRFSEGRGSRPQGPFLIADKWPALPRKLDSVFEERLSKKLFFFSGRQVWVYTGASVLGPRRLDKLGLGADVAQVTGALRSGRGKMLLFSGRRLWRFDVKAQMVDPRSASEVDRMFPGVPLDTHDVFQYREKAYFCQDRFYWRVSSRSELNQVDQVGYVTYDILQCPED

MMP-2 = target: T3, MMP-2 (Homo sapiens, UniProt P08253); assay: Automated MMP Profiling Assay, MMP-2 fluorogenic
T3 sequence (P08253 110-660): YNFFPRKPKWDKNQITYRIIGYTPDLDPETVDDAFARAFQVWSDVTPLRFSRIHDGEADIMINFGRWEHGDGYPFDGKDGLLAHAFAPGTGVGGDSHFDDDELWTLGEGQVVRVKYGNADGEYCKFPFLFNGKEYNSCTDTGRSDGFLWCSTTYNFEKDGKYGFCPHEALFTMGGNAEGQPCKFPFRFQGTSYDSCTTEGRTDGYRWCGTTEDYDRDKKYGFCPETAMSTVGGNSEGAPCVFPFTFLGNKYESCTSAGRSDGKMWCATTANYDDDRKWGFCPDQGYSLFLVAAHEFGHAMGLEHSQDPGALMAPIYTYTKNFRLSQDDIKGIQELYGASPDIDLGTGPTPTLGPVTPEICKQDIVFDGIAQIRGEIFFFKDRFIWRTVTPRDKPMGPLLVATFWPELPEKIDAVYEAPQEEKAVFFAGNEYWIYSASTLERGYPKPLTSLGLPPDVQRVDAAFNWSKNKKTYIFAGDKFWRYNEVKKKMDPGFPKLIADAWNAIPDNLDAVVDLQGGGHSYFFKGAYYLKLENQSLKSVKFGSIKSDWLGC

[1] = 96-well automated, P218, read-out: MMP-2 Fluorogenic IC50 (profiling)

T1 sequence (P08254 100-274 limits assumed): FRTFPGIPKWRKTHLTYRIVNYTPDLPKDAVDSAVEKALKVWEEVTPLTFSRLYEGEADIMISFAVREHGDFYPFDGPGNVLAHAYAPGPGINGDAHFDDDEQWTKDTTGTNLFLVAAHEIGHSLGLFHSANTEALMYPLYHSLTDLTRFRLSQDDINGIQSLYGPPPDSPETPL

Row | Structure (SMILES) | IC50 (MMP-3) [nM] | IC50 (MMP-9) [nM] | IC50 (MMP-2; [1]) [nM] | inhibition at 5 µM (MMP-9) [%] | IC50 (MMP-2) [nM] | inhibition at 5 µM (MMP-3; at 5 μM) [%] | inhibition at 5 µM (MMP-2; at 5 μM) [%]
1 | CCCCCCOc1ccc(-c2ccc(C(=O)CC(CCc3ccccc3)C(=O)O)cc2)cc1 (stereo not drawn) [Example 159, [1,1'-Biphenyl]-4-butanoic acid, 4'-(hexyloxy)-γ-oxo-α-(2-phenylethyl)-] | 116 | > 1250 | 42 |  |  |  | 
2 | CCCCOc1ccc(-c2ccc(C(=O)CC(CCc3ccccc3)C(=O)O)cc2)cc1 (stereo not drawn) [Example 160, [1,1'-Biphenyl]-4-butanoic acid, 4'-butoxy-γ-oxo-α-(2-phenylethyl)-] | 147 | 1060 | 42 |  |  |  | 
3 | O=C(CC(CCc1ccccc1)C(=O)O)c1ccc(-c2ccc(OCc3ccccc3)cc2)cc1 (stereo not drawn) [Example 161, [1,1'-Biphenyl]-4-butanoic acid, γ-oxo-α-(2-phenylethyl)-4'-(phenylmethoxy)-] | 46 | 1560 | 38 |  |  |  | 
4 | CCCCCOc1ccc(-c2ccc(C(=O)CC(CCc3cccc(I)c3)C(=O)O)cc2)cc1 (stereo not drawn) [Example 162, [1,1'-Biphenyl]-4-butanoic acid, α-[2-(3-iodophenyl)ethyl]-γ-oxo-4'-(pentyloxy)-] | 181 |  | 22 | 8 |  |  | 
5 | O=C(CC(CCc1cccc(I)c1)C(=O)O)c1ccc(-c2ccc(OCc3ccccc3)cc2)cc1 (stereo not drawn) [Example 163, [1,1'-Biphenyl]-4-butanoic acid, α-[2-(3-iodophenyl)ethyl]-γ-oxo-4'-(phenylmethoxy)-] | 64 |  | 17 | 18 |  |  | 
6 | CCCCCOc1ccc(-c2ccc(C(=O)CC(CCc3cccc(C(=O)N(CC)CC)c3)C(=O)O)cc2)cc1 (stereo not drawn) [Example 164, [1,1'-Biphenyl]-4-butanoic acid, α-[2-[3-[(diethylamino)carbonyl]phenyl]ethyl]-γ-oxo-4'-(pentyloxy)-] | 30 | 82 | 3.9 |  |  |  | 
7 | CCN(CC)C(=O)c1cccc(CCC(CC(=O)c2ccc(-c3ccc(OCc4ccccc4)cc3)cc2)C(=O)O)c1 (stereo not drawn) [Example 165, [1,1'-Biphenyl]-4-butanoic acid, α-[2-[3-[(diethylamino)carbonyl]phenyl]ethyl]-γ-oxo-4'-(phenylmethoxy)-] | 13 | 55 | 3 |  |  |  | 
8 | O=C(c1ccc(-c2ccc(Cl)cc2)cc1)[C@H]1CCN(C(=O)OCc2ccccc2)[C@@H]1C(=O)O [Example 166, 1,2-Pyrrolidinedicarboxylic acid, 3-[(4'-chloro[1,1'-biphenyl]-4-yl)carbonyl]-, 1-(phenylmethyl) ester, (2S-trans)-] | 103 | 381 |  |  | 35 |  | 
9 | O=C(c1ccc(-c2ccc(Cl)cc2)cc1)[C@@H]1CCN(C(=O)OCc2ccccc2)[C@H]1C(=O)O [Example 167, 1,2-Pyrrolidinedicarboxylic acid, 3-[(4'-chloro[1,1'-biphenyl]-4-yl)carbonyl],1-(phneylmethyl) ester, (2R-trans)-] |  |  |  | 23 |  | 18 | 31
10 | O=C(c1ccc(-c2ccc(Cl)cc2)cc1)[C@H]1CCN(C(=O)NCc2ccccc2)[C@@H]1C(=O)O [Example 168, L-Proline, 3-[(4'-chloro[1,1'-biphenyl]-4-yl)carbonyl]-1-[[(phenylmethyl)amino]carbonyl]-, trans-] | 49 | 163 | 15 |  |  |  | 
11 | O=C(c1ccc(-c2ccc(Cl)cc2)cc1)[C@H]1CCN(C(=O)CCc2ccccc2)[C@@H]1C(=O)O [Example 169, L-Proline, 3-[(4'-chloro[1,1'-biphenyl]-4-yl)carbonyl]-1-(1-oxo-3-phenylpropyl)-, trans-] | 245 | 1080 | 80 |  |  |  | 
12 | O=C(c1ccc(-c2ccc(Cl)cc2)cc1)[C@H]1CCN(C(=O)Cc2ccccc2)[C@@H]1C(=O)O [Example 170, L-Proline, 3-[(4'-chloro[1,1'-biphenyl]-4-yl)carbonyl]-1-(phenylacetyl)-, trans-] | 296 | 1800 | 103 |  |  |  | 
13 | CC(C)(C)CC(=O)N1CC[C@H](C(=O)c2ccc(-c3ccc(Cl)cc3)cc2)[C@H]1C(=O)O [Example 171, L-Proline, 3-[(4'-chloro[1,1'-biphenyl]-4-yl)carbonyl]-1-(3,3-dimethyl-1-oxobutyl)-, trans-] | 663 | 3520 | 452 |  |  |  | 
14 | CC(C)COC(=O)N1CC[C@H](C(=O)c2ccc(-c3ccc(Cl)cc3)cc2)[C@H]1C(=O)O [Example 172, 1,2-PYrrolidinecarboxylic acid, 3-[(4'-chloro[1,1'-biphenyl]-4-yl)carbonyl]-, 1-(2-methylpropyl) ester, (2S-trans)-] | 456 | 1930 | 175 |  |  |  | 
15 | O=C(c1ccc(-c2ccc(Cl)cc2)cc1)[C@H]1CCN(C(=O)Nc2ccccc2)[C@@H]1C(=O)O [Example 173, L-Proline, 3-[(4'-chloro[1,1'-biphenyl]-4-yl)carbonyl]-1-[(phenylamino)carbonyl]-, trans-] | 119 | 814 | 104 |  |  |  | 
16 | O=C(CC(CCN1C(=O)c2ccccc2C1=O)C(=O)O)c1ccc(-c2ccc(Br)cc2)cc1 (stereo not drawn) [Example 270] | 6 | 1.6 | 1.4 |  |  |  | 
17 | O=C(CC(CCN1C(=O)c2ccccc2C1=O)C(=O)O)c1ccc(-c2ccc(OCc3ccccc3)cc2)cc1 (stereo not drawn) [Example 271, 2H-Isoindole-2-butanoic acid, 1,3-dihydro-1,3-dioxo-α-[2-oxo-2-[4'-(phenylmethoxy)[1,1'-biphenyl]-4-yl]ethyl]-] | 5.2 | 7.9 | 1.4 |  |  |  | 
18 | CCCCCOc1ccc(-c2ccc(C(=O)CC(CCN3C(=O)c4ccccc4C3=O)C(=O)O)cc2)cc1 (stereo not drawn) [Example 272] | 9.2 | 10.8 | 2.28 |  |  |  | 
19 | CCOc1ccc(-c2ccc(C(=O)CC(CCN3C(=O)c4ccccc4C3=O)C(=O)O)cc2)cc1 (stereo not drawn) [Example 273, 2H-Isoindole-2-butanoic acid, α-[2-(4'-ethoxy[1,1'-biphenyl]-4-yl)-2-oxoethyl]-1,3-dihydro-1,3-dioxo-] | 21 | 1.25 | 2.27 |  |  |  | 
20 | O=C(CC(CN1C(=O)c2ccccc2C1=O)C(=O)O)c1ccc(-c2ccc(Cl)cc2)cc1 (stereo not drawn) [Example 276, 2H-Isoindole-2-propanoic acid, α-[2-(4'-chloro[1,1'-biphenyl]-4-yl)-2-oxoethyl]-1,3-dihydro-1,3-dioxo-] | 262 | 275 | 39 |  |  |  | 
21 | O=C(CC(CCNC(=O)c1ccccc1C(=O)O)C(=O)O)c1ccc(-c2ccc(Cl)cc2)cc1 (stereo not drawn) [Example 279, [1,1'-Biphenyl]-4-butanoic acid, α-[2-[(2-carboxybenzoyl)amino]ethyl]-4'-chloro-γ-oxo-] | 402 | 286 | 67 |  |  |  | 
22 | COC(=O)c1ccccc1S[C@@H]1CC[C@@H](C(=O)c2ccc(-c3ccc(Cl)cc3)cc2)[C@@H]1C(=O)O [Example 300, (1R,2R,5R)-trans-5-[4-(4-chlorophenyl)phenylcarbonyl]-cis-2-(2-methoxycarbonylphenylthio)cyclopentanecarboxylic acid] | > 1250 | > 1250 | 2500 |  |  |  | 
23 | O=C(c1ccc(-c2ccc(Cl)cc2)cc1)C1CCC(Sc2ccccc2)C1C(=O)O (stereo not drawn) [Example 312, Cyclopentanecarboxylic acid, 2-[(4'-chloro[1,1'-biphenyl]-4-yl)carbonyl]-5-(phenylthio)-, (1α,2β,5α)-] | 80 | 871 | 60 |  |  |  | 

Source: patent US5789434A, “Derivatives of substituted 4-biarylbutyric acid as matrix metalloprotease inhibitors” (priority 1995, dated 1998)
